Data on one molecule can be found in publication PMC4210147, “Sequence-Specific Dimerization of a Transmembrane Helix in Amphipol A8-35” (PLoS ONE, 2014).

The test deals with T1, human GpA TM domain (Homo sapiens, UniProt P02724).
T1 construct: purchased Peptide Specialty Laboratories, Heidelberg, Germany; host or cells: chemical synthesis (custom peptide)
T1 sequence (P02724 88-120 limits assumed) 1: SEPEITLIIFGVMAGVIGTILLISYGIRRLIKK
T1 sequence (P02724 88-120 limits assumed) 2: T1 sequence (P02724 88-120 limits assumed) 1
The experiment in a line: Steady-state FRET, GpA TM helix dimer dissociation upon addition of SDS (mixed A8-35/SDS aggregates). It is filed as binding. Here is the method: For Förster resonance energy transfer (FRET) measurements, equal concentrations of FL- and TAMRA-labeled GpA TM domains were used. Concentrations of the peptide stock solutions were determined from absorbance measurements on a Perkin Elmer Lambda 35 UV/VIS spectrophotometer. In all experiments, we used 0.25 µM for each of the two labeled GpA peptides. Peptides dissolved in TFE and A8-35 dissolved in ethanol were mixed, and organic solvents were removed under a gentle stream of nitrogen gas. Residual solvent traces were removed by vacuum desiccation overnight. The dried peptide/polymer film was then hydrated in 10 mM HEPES buffer (pH 7.4) containing 150 mM NaCl.
After at least 2 h of incubation at 37°C and 10 min of centrifugation at 16,000 g, steady-state fluorescence measurements were performed with the supernatant at 25°C on a Horiba Fluoromax 4 system with both excitation and emission slits at 3 nm. The excitation wavelength was set at 439 nm, and emission spectra were recorded from 480 to 650 nm. For FRET measurements with SDS, several concentrations of SDS, both below and above the CMC determined for the given buffer conditions, were used, and hydrated samples were incubated overnight.
Energy transfer E was calculated using the donor fluorescence intensities at 525 nm in presence and absence of acceptor according to [drawing 1] (1)
FD is the fluorescence intensity of the donor sample, and FDA is the fluorescence intensity of the sample containing donor and acceptor GpA TM domains at equal concentrations. The energy transfer of sequence-specific TM helix dimerization, ED, can be expressed as: [drawing 2] (2) where f D is the fraction of dimeric TM helices, P D is the probability of donor quenching when the peptides form a dimer, and E R is the energy transfer in the dimer.
The probability P D of donor quenching depends on the molar ratio of the acceptor peptides [drawing 3] , where [a] and [d] are the concentrations of acceptor and donor peptides, respectively. If the distance of the fluorophores in the dimer is much smaller than the Förster radius, as is the case here, ER can be taken as unity.
The fraction of dimers can be written as [drawing 4] , where [D] is the concentration of dimeric peptides and [T] the total peptide concentration.
The dissociation constant, K D, is given by [drawing 6] (4) where the monomer concentration is [drawing 7] .
This indicates a strong destabilization of the GpA dimer after addition of SDS, resulting in dissociation of GpA TM dimers in mixed A8-35/SDS aggregates. […]
Figure 6 Dissociation of the GpA TM domain in APol upon addition of SDS. […] SDS was added to preformed APol/GpA complexes, and emission spectra were recorded at 25°C after incubation at 37°C. […]

For the molecule `CC[C@H](C)[C@H](NC(=O)CNC(=O)[C@H](Cc1ccc(O)cc1)NC(=O)[C@H](CO)NC(=O)[C@@H](NC(=O)[C@H](CC(C)C)NC(=O)[C@H](CC(C)C)NC(=O)[C@@H](NC(=O)[C@@H](NC(=O)CNC(=O)[C@@H](NC(=O)[C@@H](NC(=O)CNC(=O)[C@H](C)NC(=O)[C@H](CCSC)NC(=O)[C@@H](NC(=O)CNC(=O)[C@H](Cc1ccccc1)NC(=O)[C@@H](NC(=O)[C@@H](NC(=O)[C@H](CC(C)C)NC(=O)[C@@H](NC(=O)[C@@H](NC(=O)[C@H](CCC(=O)O)NC(=O)[C@@H]1CCCN1C(=O)[C@H](CCC(=O)O)NC(=O)[C@@H](N)CO)[C@@H](C)CC)[C@@H](C)O)[C@@H](C)CC)[C@@H](C)CC)C(C)C)C(C)C)[C@@H](C)CC)[C@@H](C)O)[C@@H](C)CC)[C@@H](C)CC)C(=O)N[C@@H](CCCNC(=N)N)C(=O)N[C@@H](CCCNC(=N)N)C(=O)N[C@@H](CC(C)C)C(=O)N[C@H](C(=O)N[C@@H](CCCCN)C(=O)N[C@@H](CCCCN)C(=O)O)[C@@H](C)CC` [GpA TM domain], the “complete unfolding of GpA dimer in APol/SDS mixed micelles” value (20 µM A8-35 with SDS, analyzed concentration range, compared with DDM/SDS) was “not observed in case of APol/SDS mixed micelles”. Moreover, the “fraction of dimeric GpA” value reads like this: (SDS exceeding 1.5 mM, 20 µM A8-35, 0.5 µM labeled GpA TM domain, 25°C, n = 3) “about 0.3”; (no SDS, 20 µM A8-35, 0.5 µM labeled GpA TM domain, 25°C, n = 3) 0.7. The “increase in the dissociation constant upon SDS addition” value (no SDS vs SDS exceeding 1.5 mM, 20 µM A8-35, 0.5 µM labeled GpA TM domain, 25°C, n = 3) is recorded as “about one order of magnitude”.
